Reference: patent US9988408B2, “Cytotoxic agents for conjugation to a cell binding molecule” (priority 2013, dated 2018)
pIC50: −log10 of the molar value.

Assays:
Raji cells = test: In vitro cytotoxicity (potency) against Raji cells, WST-8 cell viability assay; assay type: cell-based; settings: Homo sapiens, 120 h, read-out: IC50 values towards Raji cells
Description: In Vitro Potency Measurement Against Raji Cells in 37° C., 5 Day Incubation
(§1) General Procedure Used: Samples of unconjugated free drug compounds or drug conjugates were added to 96-well flat bottomed tissue culture plates and titrated using serial dilutions to cover the desired molar range. Antigen positive (Ag^+) or Antigen negative (Ag^−) cells were added to the wells in specific cell densities (1000˜10000 cells/wall) in such a way that there were triplicate samples for each drug concentration for each corresponding cell line. All other cell lines were grown in RPMI-1640 (catalog no. 11875-085, Invitrogen), supplemented with 10% fetal bovine serum and gentamycin. The plates were then incubated at 37° C. in an atmosphere of 5% CO2 for 5 days. At the end of the incubation period cytotoxic potencies were then assessed using a WST-8 based cell viability assay and surviving cells were measured by developing with WST-8 (2-7 hours). The absorbance in each well was measured and the surviving fraction of cells at each concentration was plotted to reveal the cytotoxicity and/or antigen specificity (of the conjugates). The potency and specificity of the antibody-drug conjugates were measured against antigen-expressing cells, with and without the additions of an excess amount of blocking unconjugated antibody to show specificity of the killing effect.

Ramos cells = test: In vitro cytotoxicity (potency) against Ramos cells, WST-8 cell viability assay; assay type: cell-based; settings: Homo sapiens, 120 h, read-out: IC50, in vitro potency against Ramos cells
Description: In Vitro Potency Measurement Against Ramos Cells in 37° C., 5 Day Incubation
as §1

SMILES	pIC50 (Raji cells)	pIC50 (Ramos cells)
C=C1C[C@H]2C=Nc3cc(OCCP(=O)(CCOc4cc5c(cc4OC)C(=O)N4CC(=C)C[C@H]4C=N5)CCSSC)c(OC)cc3C(=O)N2C1 [Example 39]	10.96 to 11.30	
COc1cc2c(cc1OCP(=O)(COc1cc3c(cc1OC)C(=O)C1C[C@@H](F)C[C@H]1C=N3)NCCCSSc1ccccn1)N=C[C@@H]1C[C@H](F)CC1C2=O (some centres unmarked) [Example 68]		9.30 to 10.00
